In series [1] the target is ACE2 (Homo sapiens, UniProt Q9BYF1). The following applies: cited from earlier work.
The target in series [2] is S-protein RBD (Severe acute respiratory syndrome coronavirus 2, UniProt P0DTC2). Nature of the series: LSPR assay, binding to S-protein RBD. The note with it: pH 7.4. Further details: species or system SARS-CoV-2. As for the experimental part: LSPR analysis. Localized Surface Plasmon Resonance (LSPR) analysis was conducted with OpenSPRTM instrument (Nicoyalife, Canada). The COOH sensor chip was firstly installed on the OpenSPRTM instrument in accordance with the standard procedure. Run the buffer at the maximum flow rate (150 μL/min) and exhaust the bubble after reaching the signal baseline. Slow down the flow rate of buffer solution (PBS, pH 7.4) to 20 µL/min, then load 200 µL EDC/NHS (20 μL /min, 4min) solution to activate COOH sensor chips. […] The injection port was rinsed with buffer solution and emptied with air. Fill with 200 µL blocking solution (20 µL/min, 4 min), wash the sample ring with buffer solution and empty it with air. Observe baseline for 5 min to ensure stability. Next, the selected peptides were diluted into a series of solutions with different concentration, which were then injected into the chip with the concentration from low to high. The kinetic parameters of the binding reactions were calculated and analyzed by using TraceDrawer software (Ridgeview Instruments AB, Sweden).

For series [3], the system named is SARS-CoV-2 S-protein. The format is binding.
The test system of series [4] is SARS-CoV-2 Spike-pseudovirus. The note with it: in vivo.
For series [5], the system named is SARS-CoV-2 Spike-pseudovirus. The following applies: in vivo. The source holds these as a separate data set.
Series [6] has as its system SARS-CoV-2 Spike-pseudovirus. The note with it: in vivo. The source holds these as a separate data set.
Series [7] concerns HEK293T/hACE2 cells.
For series [8] the following is noted: mouse, in vivo.

Results on 5 molecules are retold here after publication PMC8326117 (International Journal of Biological Sciences, 2021).

“Also recorded” adds a separate entry of the source. No end group written: not given here.

Sequence of ACE2 (Q9BYF1 18-805): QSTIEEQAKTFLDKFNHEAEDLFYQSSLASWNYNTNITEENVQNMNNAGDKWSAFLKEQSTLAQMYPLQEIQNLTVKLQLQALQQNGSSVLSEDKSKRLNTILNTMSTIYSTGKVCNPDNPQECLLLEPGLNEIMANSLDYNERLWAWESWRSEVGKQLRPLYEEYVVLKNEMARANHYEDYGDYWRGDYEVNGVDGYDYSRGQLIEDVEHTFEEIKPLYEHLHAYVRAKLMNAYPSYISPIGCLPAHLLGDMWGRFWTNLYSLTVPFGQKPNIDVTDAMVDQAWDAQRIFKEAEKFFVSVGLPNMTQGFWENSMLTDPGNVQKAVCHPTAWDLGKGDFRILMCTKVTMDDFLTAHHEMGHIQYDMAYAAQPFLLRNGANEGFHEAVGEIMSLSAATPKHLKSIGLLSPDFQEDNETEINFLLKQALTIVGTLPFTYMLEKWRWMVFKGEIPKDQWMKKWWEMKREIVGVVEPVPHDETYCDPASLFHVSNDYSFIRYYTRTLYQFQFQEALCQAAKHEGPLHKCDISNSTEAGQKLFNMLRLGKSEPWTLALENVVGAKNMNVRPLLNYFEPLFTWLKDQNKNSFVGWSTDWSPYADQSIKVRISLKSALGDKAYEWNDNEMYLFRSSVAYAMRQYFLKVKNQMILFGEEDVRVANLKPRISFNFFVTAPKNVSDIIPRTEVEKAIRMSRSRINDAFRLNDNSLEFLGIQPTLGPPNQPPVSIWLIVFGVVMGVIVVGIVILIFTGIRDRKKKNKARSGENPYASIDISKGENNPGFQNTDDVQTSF

Take `Cc1cc(O)c2c(c1)C(=O)c1cc(O)cc(O)c1C2=O` [emodin]: the ACE2 blocking entry in series [1] is reported as “identified to block ACE2”.

`COc1ccc2[nH]cc(CCNC(C)=O)c2c1` [melatonin]: in series [1], the ACE2 blocking entry is given as “identified to block ACE2”.

For `S=c1[nH]cnc2nc[nH]c12` [mercaptopurine], the ACE2 blocking result in series [1] is on record as “identified to block ACE2”.

On to `CN(C)CCOc1ccc(/C(=C(/CCCl)c2ccccc2)c2ccccc2)cc1` [toremifene], for which the ACE2 blocking entry in series [1] was “identified to block ACE2”.

With KKKKKKDKFNHEAEDLFY [AYn1], in series [2], the koff turned out to be 0.001 s⁻¹ and the kon came to 10500 M⁻¹ s⁻¹. For the same molecule, in series [3], the “protein-peptide interaction in pull-down” value was “no protein signal was detected in negative and blank control lanes”. In addition, in series [4], the “pseudovirus infection / luciferin luminance” value is “relatively weaker impact on pseudovirus infection; also recorded: ameliorated; also recorded: failed to prevent pseudovirus infection in vivo”. In addition, the “pseudovirus content in lungs (119 bp S-protein band)” value in series [5] is “relative weak therapeutic effect”. The “luciferase IHC staining in lungs” value in series [6] is listed as “significantly ameliorated”. Further, in series [7], the cytotoxicity result is “no significant cytotoxicity” and the “cytotoxicity (general statement)” value is given as “no cytotoxicity”. In series [8], the “distribution in livers and kidneys” value is “not in the kidneys and livers”; the “distribution in lungs and small intestine” value is “preferentially distributed in the lungs and intestine”.

The koff is the first-order rate constant of dissociation. Usually kon stands for the rate constant with which the complex forms. Read a low kon as slow association.
